Experiment [1] addresses HCV RNA motif 5′GUG3′/3′C_C5′ (SL I and SL III). As to the kind of experiment: In solution, fluorescence-based binding affinity assay, HCV RNA motifs. Set-up: species or system Hepatitis C virus. An excerpt: (§1) The compounds bind their cognate loops in the 3′ UTR with mid-nanomolar to low micromolar affinities (Table 1). It was next determined if the identified compounds could inhibit HCV RNA replication in HCV subgenomic replicon cells, in particular SGR-Neo-RLuc-JFH1-2A replicon cells established in Huh-7.5 (human hepatoma cells). In this system, an autonomously replicating viral RNA replicon is used to monitor efficiently RNA replication of the virus in the absence of spread of viral RNA to adjacent cells. This is achieved by replacing the structural proteins required to assembly progeny virions with a drug selectable marker (Neo) and a Renilla luciferase (RLuc) reporter gene. Once this replicon has been delivered to human hepatoma cells and selection with G418 (conferred by Neo selectable marker) has occurred, the expression and Renilla luciferase activity is directly correlated with the level of HCV replication^57.
(§2) where n1 is the size of Population 1 (number of sequencing reads for a given RNA from RNA-seq analysis of the selected library), n2 is the size of Population 2 (number of sequencing reads for the same RNA from RNA-seq analysis of the starting library), p1 is the observed proportion of Population 1 (the number of reads for a given RNA from selected library/total number of reads), and p2 is the observed proportion for Population 2 (the number of reads for the same RNA in the starting library/total number of reads). Generation of Logos and DiffLogos: Zobs corresponding to the highest (enriched) 0.5% and lowest (discriminated against) 0.5% scores were analyzed to generate consensus sequences, or Logos. The resulting list of sequences were converted to position weight matrix (PWM) lists for each compound. “Enriched” and “discriminated” sequences were kept separate using JMP®, Version <13.2.1>. SAS Institute Inc., Cary, N.C., 1989-2007. The R package Difflogo,^16 which is part of Bioconductor, was utilized to create the sequence logos from PWM lists for each compound and visually compare the differences between them. Binding Affinity Measurements. Dissociation constants were determined using an in solution, fluorescence-based assay. […] Serial dilutions (1:2) of the small molecule were then completed in 1× Assay Buffer supplemented with 1 mM MgCl2. The solutions were incubated for 30 min at room temperature, transferred to a 96-well plate, and fluorescence intensity measured on a BioTek-FLx800 plate reader. The change in fluorescence intensity as a function of small molecule concentration was fit to a one site binding model per equation 3: […]
(§3) Effect of compounds on HCV replication. […] Cytotoxicity assays. […] Oligonucleotide profiling of target engagement in vitro. […] Primers can be found in Table 4. […] Inhibition of kinases. […] . Figure S7C).

The target of experiment [2] is HCV RNA motif 5′CUG3′/3′G_C5′ (SL II). The experiment is described as above. Set-up: species or system Hepatitis C virus.
From the text: as §1, §2, §3

Experiment [3] concerns the target HCV RNA motif 5′UAG3′/3′A_C5′ (SL I). The description is as above. Set-up: species or system Hepatitis C virus.
From the text: as §1, §2, §3

For experiment [4], the target named is Fully paired RNA. As to the kind of experiment: In solution, fluorescence-based binding affinity assay. The protocol:
(§4) Affinity of Selected RNA Motif-Small Molecule Interactions. The affinity of exemplar compounds that have inherent fluorescence was measured. […] . Binding affinities were confirmed using a label-free method, biolayer interferometry.
as §2, §3

Experiment [5] addresses RNA motif 5′UUA3′/3′A_U5′ (from RNA library C). Described as above. The protocol: as §4, §2, §3
In experiment [6] the target is CAMK4 (Homo sapiens, UniProt Q16566). In words: In vitro inhibition of a panel of kinases. Type of experiment: biochemical. The note with it: 20 μM.
From the text: as §3

Several values for one entry are separate records, joined by “and”; a condition that tells them apart may be missing. Equal entries are not always repeated. Some results are limits rather than exact numbers.

Sequence of CAMK4 (Q16566 whole entry): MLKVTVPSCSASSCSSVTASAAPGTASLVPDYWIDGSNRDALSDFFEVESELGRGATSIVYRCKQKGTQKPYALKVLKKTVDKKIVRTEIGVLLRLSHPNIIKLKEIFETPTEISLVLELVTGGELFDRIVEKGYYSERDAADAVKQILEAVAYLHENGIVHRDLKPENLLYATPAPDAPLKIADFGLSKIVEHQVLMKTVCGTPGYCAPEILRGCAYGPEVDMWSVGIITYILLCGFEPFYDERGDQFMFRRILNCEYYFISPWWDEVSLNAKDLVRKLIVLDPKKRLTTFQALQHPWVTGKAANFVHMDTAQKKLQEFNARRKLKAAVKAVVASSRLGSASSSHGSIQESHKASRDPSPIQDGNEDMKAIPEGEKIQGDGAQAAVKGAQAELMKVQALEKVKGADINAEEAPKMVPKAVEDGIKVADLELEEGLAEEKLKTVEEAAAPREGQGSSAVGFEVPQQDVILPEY

Usually Kd stands for the free concentration of one partner at which half of the binding sites on the other are occupied at equilibrium, for simple one-to-one binding. For `O=C(Nc1cccc(NC(=O)Nc2cc(C(=O)Nc3ccc(C4=NCCN4)cc3)ccc2C(=O)Nc2ccc(C3=NCCN3)cc2)c1)Nc1cc(C(=O)Nc2ccc(C3=NCCN3)cc2)ccc1C(=O)Nc1ccc(C2=NCCN2)cc1` [Compound 7], the Kd in experiment [1] is 0.47 ± 0.032 µM; in experiment [2], 0.82 ± 0.082 µM; in experiment [3], 0.46 ± 0.07 µM; in experiment [4], greater than 7 µM; in experiment [5], 0.38 ± 0.026 µM. For the same molecule, in experiment [6], the “inhibition of CAMK4 in vitro” value was “most significantly inhibited”.

With `O=C(Nc1ccc(C2=NCCN2)cc1)c1cc(C(=O)Nc2ccc(C3=NCCN3)cc2)cc(C(=O)Nc2ccc(C3=NCCN3)cc2)c1` [Compound 8], the Kd in experiment [1] is 1.4 ± 0.16 µM; in experiment [2], 1.4 ± 0.211 µM; in experiment [3] it was 0.849 ± 0.15 µM; in experiment [4], greater than 5 µM; in experiment [5] it was 0.69 µM and 0.53 µM. Also, in experiment [6], the “inhibition of CAMK4 in vitro” value is recorded as “most significantly inhibited”.

These data come from patent publication US20220119868A1, “PROFILING RNA-SMALL MOLECULE BINDING SITES WITH OLIGONUCLEOTIDES” (priority 2018, published 2022).
